# What was measured:
# [1] = Clearance in rhesus monkey at 1 mg/kg, iv; assay type: ADME, organism-based, Macaca mulatta; design: dose 1 mg/kg, route intravenous; conditions: in vivo
# [2] = Volume of distribution in Dutch Belted rabbit at 2 mg/kg, iv; assay type: ADME, organism-based, Oryctolagus cuniculus; design: dose 2 mg/kg, route intravenous; conditions: in vivo, read-out: Vdss
# [3] = Volume of distribution in Beagle dog at 1 mg/kg, iv; assay type: ADME, organism-based, Canis lupus familiaris; design: dose 1 mg/kg, route intravenous; conditions: in vivo, read-out: Vdss
# [4] = Tmax in BALB/c mice at 10 mg/kg, iv; assay type: ADME, organism-based; design: dose 10 mg/kg, route intravenous; conditions: mouse, in vivo
# Stromelysin-1 = Stromelysin-1 (Homo sapiens, UniProt P08254); experiment: Inhibition of MMP3
# Chain of Stromelysin-1 (P08254 whole entry): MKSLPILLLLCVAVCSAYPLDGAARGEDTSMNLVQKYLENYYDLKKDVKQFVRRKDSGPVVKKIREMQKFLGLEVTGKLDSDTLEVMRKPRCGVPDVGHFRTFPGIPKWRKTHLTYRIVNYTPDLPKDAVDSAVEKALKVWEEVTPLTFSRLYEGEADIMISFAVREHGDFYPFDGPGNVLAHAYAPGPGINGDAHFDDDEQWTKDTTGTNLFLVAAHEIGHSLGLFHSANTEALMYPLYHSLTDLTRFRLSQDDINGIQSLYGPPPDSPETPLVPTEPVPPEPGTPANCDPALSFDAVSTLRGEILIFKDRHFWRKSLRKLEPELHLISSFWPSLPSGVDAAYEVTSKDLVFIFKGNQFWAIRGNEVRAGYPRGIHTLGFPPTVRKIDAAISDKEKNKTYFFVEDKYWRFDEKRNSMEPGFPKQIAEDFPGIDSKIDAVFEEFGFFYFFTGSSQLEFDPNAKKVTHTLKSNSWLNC
# [5] = Tmax in Guinea pig at 2 mg/kg, iv; assay type: ADME, organism-based, Cavia porcellus; design: dose 2 mg/kg, route intravenous; conditions: in vivo
# [6] = Clearance in Sprague-Dawley rat at 1 mg/kg, iv; assay type: ADME, organism-based; design: dose 1 mg/kg, route intravenous; conditions: in vivo
# [7] = Solubility in water; assay type: physicochemical
# [8] = Tmax in Beagle dog at 1 mg/kg, iv; assay type: ADME, organism-based, Canis lupus familiaris; design: dose 1 mg/kg, route intravenous; conditions: in vivo
# [9] = Clearance in Guinea pig at 2 mg/kg, iv; assay type: ADME, organism-based, Cavia porcellus; design: dose 2 mg/kg, route intravenous; conditions: in vivo
# [10] = Bioavailability in Dutch Belted rabbit […], po; assay type: ADME, organism-based, Oryctolagus cuniculus; conditions: in vivo
# [11] = Tmax in Sprague-Dawley rat at 1 mg/kg, iv; assay type: ADME, organism-based; design: dose 1 mg/kg, route intravenous; conditions: in vivo
# [12] = Cmax in rhesus monkey at 1 mg/kg, iv; assay type: ADME, organism-based, Macaca mulatta; design: dose 1 mg/kg, route intravenous; conditions: in vivo
# [13] = Bioavailability in Sprague-Dawley rat […], po; assay type: ADME, organism-based; conditions: in vivo
# Lethal factor [14] = target: T1, Lethal factor (Bacillus anthracis, UniProt P15917)
# T1 sequence (P15917 whole entry): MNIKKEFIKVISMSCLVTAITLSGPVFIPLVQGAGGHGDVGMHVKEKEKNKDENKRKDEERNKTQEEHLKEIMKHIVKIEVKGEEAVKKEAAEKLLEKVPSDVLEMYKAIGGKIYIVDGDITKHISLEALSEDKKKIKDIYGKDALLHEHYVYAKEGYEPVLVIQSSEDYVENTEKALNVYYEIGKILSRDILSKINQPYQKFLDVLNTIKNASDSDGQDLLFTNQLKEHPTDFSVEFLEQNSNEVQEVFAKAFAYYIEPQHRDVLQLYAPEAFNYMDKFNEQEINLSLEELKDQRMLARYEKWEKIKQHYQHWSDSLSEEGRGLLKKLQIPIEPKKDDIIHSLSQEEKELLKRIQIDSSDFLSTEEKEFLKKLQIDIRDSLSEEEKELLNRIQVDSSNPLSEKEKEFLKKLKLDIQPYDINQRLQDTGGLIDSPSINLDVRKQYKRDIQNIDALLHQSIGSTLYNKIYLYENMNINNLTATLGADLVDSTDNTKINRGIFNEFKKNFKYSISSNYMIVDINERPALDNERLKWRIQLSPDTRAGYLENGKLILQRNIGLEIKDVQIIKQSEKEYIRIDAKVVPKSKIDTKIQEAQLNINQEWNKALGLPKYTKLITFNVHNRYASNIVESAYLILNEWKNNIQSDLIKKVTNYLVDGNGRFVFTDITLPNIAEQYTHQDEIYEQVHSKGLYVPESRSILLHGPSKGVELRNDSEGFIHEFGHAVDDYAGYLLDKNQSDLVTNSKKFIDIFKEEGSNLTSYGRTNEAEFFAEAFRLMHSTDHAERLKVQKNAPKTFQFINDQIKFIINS
# [15] = target: T2, Endothelin-converting enzyme 1 (Homo sapiens) (UniProt P42892); experiment: Inhibition of ECE at 10 uM
# T2 sequence (whole entry): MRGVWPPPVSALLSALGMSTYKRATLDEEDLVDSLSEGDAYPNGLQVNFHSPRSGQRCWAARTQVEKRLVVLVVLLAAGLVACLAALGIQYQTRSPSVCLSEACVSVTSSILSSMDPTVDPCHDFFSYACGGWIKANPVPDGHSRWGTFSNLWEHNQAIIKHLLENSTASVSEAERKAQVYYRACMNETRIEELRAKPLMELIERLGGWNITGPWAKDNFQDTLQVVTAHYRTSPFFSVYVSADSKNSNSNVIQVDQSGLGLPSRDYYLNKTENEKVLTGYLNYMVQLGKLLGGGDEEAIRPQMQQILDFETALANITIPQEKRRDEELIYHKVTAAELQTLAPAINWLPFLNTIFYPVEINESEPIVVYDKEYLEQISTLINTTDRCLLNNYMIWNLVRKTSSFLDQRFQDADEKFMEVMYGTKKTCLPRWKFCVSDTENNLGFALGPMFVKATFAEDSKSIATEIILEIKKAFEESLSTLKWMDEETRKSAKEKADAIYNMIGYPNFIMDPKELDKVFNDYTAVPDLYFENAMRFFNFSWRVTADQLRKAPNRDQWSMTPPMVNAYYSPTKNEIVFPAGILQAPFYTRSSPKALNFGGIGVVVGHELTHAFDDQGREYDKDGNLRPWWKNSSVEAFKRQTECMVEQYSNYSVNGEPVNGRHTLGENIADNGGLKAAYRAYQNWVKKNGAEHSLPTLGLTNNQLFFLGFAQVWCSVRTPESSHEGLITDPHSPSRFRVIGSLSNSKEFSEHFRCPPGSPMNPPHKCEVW
# [16] = Tmax in rhesus monkey at 1 mg/kg, iv; assay type: ADME, organism-based, Macaca mulatta; design: dose 1 mg/kg, route intravenous; conditions: in vivo
# [17] = target: Angiotensin-converting enzyme (Homo sapiens) (UniProt P12821); experiment: Inhibition of ACE at 10 uM
# Chain of Angiotensin-converting enzyme (Homo sapiens) (P12821 whole entry): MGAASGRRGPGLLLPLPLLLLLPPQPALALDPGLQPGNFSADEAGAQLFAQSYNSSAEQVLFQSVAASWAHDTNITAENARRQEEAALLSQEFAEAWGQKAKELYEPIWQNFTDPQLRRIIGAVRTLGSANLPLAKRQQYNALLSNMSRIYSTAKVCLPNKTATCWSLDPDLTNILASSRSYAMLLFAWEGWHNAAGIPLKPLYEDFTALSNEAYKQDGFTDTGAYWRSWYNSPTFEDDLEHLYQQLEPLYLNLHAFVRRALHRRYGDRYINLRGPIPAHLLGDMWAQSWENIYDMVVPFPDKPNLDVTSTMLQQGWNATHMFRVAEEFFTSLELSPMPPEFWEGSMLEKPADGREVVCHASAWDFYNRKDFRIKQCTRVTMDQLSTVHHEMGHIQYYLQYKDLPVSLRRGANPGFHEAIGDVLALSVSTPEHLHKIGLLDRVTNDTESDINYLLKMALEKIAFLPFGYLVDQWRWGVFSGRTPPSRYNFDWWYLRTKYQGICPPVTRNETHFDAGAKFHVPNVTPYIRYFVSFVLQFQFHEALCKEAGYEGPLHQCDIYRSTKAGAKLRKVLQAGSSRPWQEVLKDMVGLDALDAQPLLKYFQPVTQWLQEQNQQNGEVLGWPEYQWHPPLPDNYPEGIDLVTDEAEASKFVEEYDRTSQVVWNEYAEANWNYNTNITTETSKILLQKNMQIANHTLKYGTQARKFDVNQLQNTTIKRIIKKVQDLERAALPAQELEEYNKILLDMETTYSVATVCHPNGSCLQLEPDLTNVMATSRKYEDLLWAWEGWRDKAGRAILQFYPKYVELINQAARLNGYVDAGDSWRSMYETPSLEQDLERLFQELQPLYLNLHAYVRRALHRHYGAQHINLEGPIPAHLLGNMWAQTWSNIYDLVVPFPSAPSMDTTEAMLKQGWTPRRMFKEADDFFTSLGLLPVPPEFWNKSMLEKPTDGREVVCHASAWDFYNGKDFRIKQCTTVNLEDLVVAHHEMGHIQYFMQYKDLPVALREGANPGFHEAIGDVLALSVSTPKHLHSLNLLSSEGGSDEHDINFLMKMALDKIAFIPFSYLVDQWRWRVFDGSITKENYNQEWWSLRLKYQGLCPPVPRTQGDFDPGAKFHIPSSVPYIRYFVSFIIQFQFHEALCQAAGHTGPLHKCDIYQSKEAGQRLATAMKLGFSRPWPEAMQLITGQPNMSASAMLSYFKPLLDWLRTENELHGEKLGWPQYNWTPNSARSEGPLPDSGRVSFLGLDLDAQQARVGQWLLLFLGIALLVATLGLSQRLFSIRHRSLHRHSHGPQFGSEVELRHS
# Interstitial collagenase = target: T3, Interstitial collagenase (Homo sapiens, UniProt P03956); experiment: Inhibition of MMP1
# T3 sequence (P03956 whole entry): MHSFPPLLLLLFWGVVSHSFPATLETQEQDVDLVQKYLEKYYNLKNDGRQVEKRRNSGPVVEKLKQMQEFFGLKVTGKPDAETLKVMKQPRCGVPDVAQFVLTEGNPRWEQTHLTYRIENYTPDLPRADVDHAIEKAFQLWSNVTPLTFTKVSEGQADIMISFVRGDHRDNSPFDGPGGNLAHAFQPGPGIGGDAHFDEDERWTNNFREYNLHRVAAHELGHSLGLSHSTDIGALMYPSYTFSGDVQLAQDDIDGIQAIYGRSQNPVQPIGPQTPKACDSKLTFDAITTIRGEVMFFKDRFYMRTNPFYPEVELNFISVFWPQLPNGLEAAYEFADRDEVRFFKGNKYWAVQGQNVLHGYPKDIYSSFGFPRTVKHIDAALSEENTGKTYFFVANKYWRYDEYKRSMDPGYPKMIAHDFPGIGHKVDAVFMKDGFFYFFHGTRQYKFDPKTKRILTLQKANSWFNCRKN
# [18] = Cmax in Beagle dog at 1 mg/kg, iv; assay type: ADME, organism-based, Canis lupus familiaris; design: dose 1 mg/kg, route intravenous; conditions: in vivo
# [19] = Clearance in Beagle dog at 1 mg/kg, iv; assay type: ADME, organism-based, Canis lupus familiaris; design: dose 1 mg/kg, route intravenous; conditions: in vivo
# Lethal factor [20] = target: T1, Lethal factor; remark: listed apart in the source
# [21] = target: Disintegrin and metalloproteinase domain-containing protein 17 (Homo sapiens, UniProt P78536); experiment: Inhibition of TACE
# Chain of Disintegrin and metalloproteinase domain-containing protein 17 (P78536 whole entry, the tested form may be a part): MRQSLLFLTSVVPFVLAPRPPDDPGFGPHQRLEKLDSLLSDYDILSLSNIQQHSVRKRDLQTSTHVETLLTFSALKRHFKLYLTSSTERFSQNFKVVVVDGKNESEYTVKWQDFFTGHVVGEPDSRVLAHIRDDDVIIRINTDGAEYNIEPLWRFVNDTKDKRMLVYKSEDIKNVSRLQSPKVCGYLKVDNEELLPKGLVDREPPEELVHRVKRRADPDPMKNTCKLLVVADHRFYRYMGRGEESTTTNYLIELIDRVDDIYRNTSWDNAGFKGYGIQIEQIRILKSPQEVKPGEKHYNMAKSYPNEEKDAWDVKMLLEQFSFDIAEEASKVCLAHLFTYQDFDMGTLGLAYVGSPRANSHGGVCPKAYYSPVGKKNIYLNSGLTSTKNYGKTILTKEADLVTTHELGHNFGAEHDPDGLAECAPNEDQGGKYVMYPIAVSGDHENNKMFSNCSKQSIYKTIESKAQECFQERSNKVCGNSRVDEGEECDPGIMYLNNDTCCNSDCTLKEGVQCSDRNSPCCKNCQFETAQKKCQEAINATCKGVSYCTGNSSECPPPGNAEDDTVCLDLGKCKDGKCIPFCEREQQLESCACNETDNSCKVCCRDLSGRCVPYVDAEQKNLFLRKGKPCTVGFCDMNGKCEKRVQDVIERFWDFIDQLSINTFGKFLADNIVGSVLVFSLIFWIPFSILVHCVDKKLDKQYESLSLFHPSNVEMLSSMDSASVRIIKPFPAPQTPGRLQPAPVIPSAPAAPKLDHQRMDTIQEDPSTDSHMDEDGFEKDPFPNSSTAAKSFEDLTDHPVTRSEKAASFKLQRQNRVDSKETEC
# [22] = Volume of distribution in Sprague-Dawley rat at 1 mg/kg, iv; assay type: ADME, organism-based; design: dose 1 mg/kg, route intravenous; conditions: in vivo, read-out: Vdss
# [23] = Clearance in BALB/c mice at 10 mg/kg, iv; assay type: ADME, organism-based; design: dose 10 mg/kg, route intravenous; conditions: mouse, in vivo
# [24] = Cmax in Dutch Belted rabbit at 2 mg/kg, iv; assay type: ADME, organism-based, Oryctolagus cuniculus; design: dose 2 mg/kg, route intravenous; conditions: in vivo
# [25] = Half life in rhesus monkey at 1 mg/kg, iv; assay type: ADME, organism-based, Macaca mulatta; design: dose 1 mg/kg, route intravenous; conditions: in vivo
compound,measurement,setting,value
Cc1cc(S(=O)(=O)N[C@@H](C(=O)NO)C2CCOCC2)ccc1F,clearance,[1],23 mL/min/kg
same,Vd,[2],1.5 L/kg
same,Vd,[3],2.4 L/kg
same,Tmax,[4],18 min
same,IC50,Stromelysin-1,1.4 µM
same,Tmax,[5],48 min
same,clearance,[6],80 mL/min/kg
same,solubility,[7],2500 µg/mL
same,Tmax,[8],48 min
same,clearance,[9],24 mL/min/kg
same,bioavailability,[10],0.5%
same,Tmax,[11],18 min
same,Cmax,[12],120 nM
same,bioavailability,[13],51%
same,IC50,Lethal factor [14],0.21 µM
same,inhibition,[15],< 10%
same,Tmax,[16],78 min
same,inhibition,[17],< 10%
same,IC50,Interstitial collagenase,2.2 µM
same,Cmax,[18],730 nM
same,clearance,[19],15 mL/min/kg
same,IC50,Lethal factor [20],0.054 µM
same,IC50,[21],4.3 µM
same,Vd,[22],3.9 L/kg
same,clearance,[23],72 mL/min/kg
same,Cmax,[24],12 nM
same,half-life,[25],144 min
